From patent publication EP0001503A1, “Antithrombotic compositions containing benzisothiazolones” (BEECHAM GROUP PLC, priority 1977, dated 1979)
Counter-ions that a name gives are not always drawn. Marks after values point to notes of the source that are not given here.

Experiments:
[1] = tested on: platelet aggregation (ADP); assay: Inhibition of ADP-induced platelet aggregation, guinea pig ex vivo (turbidimetric, PRP); type: in vivo; settings: p.o.
Procedure: (§1) These compounds were tested for inhibition of platelet aggregation alone and in combination with certain anti-inflammatory agents, in the guinea pig ex vivo by the following method: • Ten male guinea pigs weighing 250-300 g were orally dosed 1% methyl cellulose (5 ml/kg) in which the compound under test was suspended. Ten control animals were given methyl cellulose alone. […] Platelet-rich- plasma (PRP) was prepared from each blood sample by centrifigation at 450 g to 5 min. The platelet concentration in each sample or PRP was adjusted with auto- logous platelet-poor-plasma to give a count of […] PRP. Aggregation was measured turbido- metrically (G.V.R. Born, 1962, Nature, 194, 927-929) at 39° using a Bryston aggregometer coupled to a penrecorder. The concentration of callogen producing approximately 50% maximal aggregation and the concentration of ADP producing first-phase aggregation were compared in PRP samples from control and drug treated animals.
(§2) In the tables the dose ratio represents the ratio of the concentration of aggregating agent to cause aggregation in PRP from drug-treated animals to the concentration of aggregating agent to cause aggregation in PRP from control animals.

[2] = tested on: platelet aggregation (collagen); assay: Inhibition of collagen-induced platelet aggregation, guinea pig ex vivo (turbidimetric, PRP); type: in vivo; settings: p.o.
Procedure: as §1, §2

[3] = Table 1, ADP 0.5μM, 2 h, mmol(mg)/kg: Aspirin 0.15 (27), Compound A 0.08 (20), combination 0.15 (27)+0.08 (20)
[4] = Table 1, 2 h, mmol(mg)/kg: Aspirin 0.15 (27), Compound A 0.08 (20), combination 0.15 (27)+0.08 (20)
[5] = Table 1, PRP 2 h after dosing, mmol(mg)/kg: Aspirin 0.15 (27), Compound A 0.08 (20), combination 0.15 (27)+0.08 (20)
[6] = Table 2, ADP 0.5μM, 2 h, mmol(mg)/kg: Aspirin 0.15 (27), Compound B 0.08 (22), combination 0.15 (27)+0.08 (22)
[7] = Table 2, 2 h, mmol(mg)/kg: Aspirin 0.15 (27), Compound B 0.08 (22), combination 0.15 (27)+0.08 (22)
[8] = Table 4, ADP 0.5μM, 2 h, mmol(mg)/kg: Aspirin 0.15 (27), Compound C 0.6 (217), combination 0.15 (27)+0.6 (217)
[9] = Table 4, 2 h, mmol(mg)/kg: Aspirin 0.15 (27), Compound C 0.6 (217), combination 0.15 (27)+0.6 (217)
[10] = Table 5, ADP 0.5µM, 2 h, mmol(mg)/kg: Aspirin 0.15 (27), Compound D 0.08 (31), combination 0.08 (31)+0.15 (27)
[11] = Table 5, 2 h, mmol(mg)/kg: Aspirin 0.15 (27), Compound D 0.08 (31), combination 0.08 (31)+0.15 (27)
[12] = Table 6, ADP 0.5µM, 2 h, mmol(mg)/kg: Aspirin 0.15 (27), Compound D 0.15 (59), Compound D Aspirinate Salt 0.15 (88)
[13] = Table 6, 2 h, mmol(mg)/kg: Aspirin 0.15 (27), Compound D 0.15 (59), Compound D Aspirinate Salt 0.15 (88)
[14] = Table 3, ADP 0.5µM, 2 h, mmol(mg)/kg: Indomethacin 0.003 (1), Compound B 0.08 (22), combination 0.003 (1)+0.08 (22)
[15] = Table 3, 2 h, mmol(mg)/kg: Indomethacin 0.003 (1), Compound B 0.08 (22), combination 0.003 (1)+0.08 (22)

## CC(=O)Oc1ccccc1C(=O)O [Aspirin, aspirin, reference compound]
[1]; [3]
  % Inhibition of ADP (0.5µM): 16%
[1]; [4]
  % Inhibition of ADP 1μM: 0%
[1]; [5]
  Dose-ratio vs. ADP: 1.3
[1]; [6]
  % Inhibition of ADP (0.5µM): 0%
[1]; [7]
  Dose-ratio vs. ADP: 1.3
[1]; [8]
  % Inhibition of ADP (0.5µM): 0%
[1]; [9]
  Dose-ratio vs. ADP: 1.3
[1]; [10]
  % Inhibition of ADP (0.5µM): 0%
[1]; [11]
  Dose-ratio vs. ADP: 1.3
[1]; [12]
  % Inhibition of ADP (0.5µM): 0%
[1]; [13]
  Dose-ratio vs. ADP: 1.3
[2]; [5]
  Dose-ratio vs. Coll.: 2.2*
[2]; [7]
  Dose-ratio vs. Coll.: 2.2*
[2]; [9]
  Dose-ratio vs. Coll.: 2.2*
[2]; [11]
  Dose-ratio vs. Coll.: 2.2*
[2]; [13]
  Dose-ratio vs. Coll.: 2.2*

## COc1cc2sn(CCCCN3CC4CCC(CC4)C3)c(=O)c2cc1OC [Compound D Aspirinate Salt, Aspirin salt of 2-(4-(3-azabicyclo[3.2.2.]non-3-yl)butyl)-5,6-dimethoxy-1,2-benzisothiazol-3-one]
[1]; [12]
  % Inhibition of ADP (0.5µM): 91* %
[1]; [13]
  Dose-ratio vs. ADP: 4.6*
[2]; [13]
  Dose-ratio vs. Coll.: >57*

## COc1ccc2c(c1)c(CC(=O)O)c(C)n2C(=O)c1ccc(Cl)cc1 [Indo-methacin, Indomethacin, reference compound]
[1]; [14]
  % Inhibition of ADP (0.5µM): 0%
[1]; [15]
  Dose-ratio vs. ADP: 1.1
[2]; [15]
  Dose-ratio vs. Coll.: 1.7*

## COc1cc2sn(CCCCN3CC4CCC(CC4)C3)c(=O)c2cc1OC [Compound D, 2-[4-(3-azabicyclo[3.2.2]non-3-yl)butyl]-5,6-dimethoxy-1,2-benzisothiazol-3-one]
[1]; [10]
  % Inhibition of ADP (0.5µM): 86* %
[1]; [11]
  Dose-ratio vs. ADP: 2.6*
[1]; [12]
  % Inhibition of ADP (0.5µM): 61* %
[1]; [13]
  Dose-ratio vs. ADP: 3.2*
[2]; [11]
  Dose-ratio vs. Coll.: 5.4*
[2]; [13]
  Dose-ratio vs. Coll.: >15.4*

## O=c1c2ccccc2sn1CCN1CCCCC1 [Compound A, 2-[2-(1-piperidyl)ethyl] 1,2-benzisothiazol-3-one]
[1]; [3]
  % Inhibition of ADP (0.5µM): 26%
[1]; [4]
  % Inhibition of ADP 1μM: 0%
[1]; [5]
  Dose-ratio vs. ADP: 1.4*
[2]; [5]
  Dose-ratio vs. Coll.: 8.3*

## O=c1c2ccccc2sn1CCCN1CCCCC1 [Compound B, 2-[3-(1-piperidyl)propyl]-1,2-benzisothiazol-3-one]
[1]; [6]
  % Inhibition of ADP (0.5µM): 57* %
[1]; [7]
  Dose-ratio vs. ADP: 1.7*
[1]; [14]
  % Inhibition of ADP (0.5µM): 57* %
[1]; [15]
  Dose-ratio vs. ADP: 1.7*
[2]; [7]
  Dose-ratio vs. Coll.: 9.0*
[2]; [15]
  Dose-ratio vs. Coll.: 9.0*

## COc1cc2sn(CCN3CC4CCC(CC4)C3)c(=O)c2cc1OC [Compound C, 2-[2-(3-azabicyclo[3.2.2]non-3-yl)ethyl)-5,6-dimethoxy-1,2-benzisothiazol-3-one]
[1]; [8]
  % Inhibition of ADP (0.5µM): 92* %
[1]; [9]
  Dose-ratio vs. ADP: 3.3*
[2]; [9]
  Dose-ratio vs. Coll.: >13.9*
